Target: T1, human ferroportin (Homo sapiens, UniProt Q9NP59)
T1 construct: luciferase reporter (read with the Nano-Glo Luciferase Assay System); expressed in transfected cells; host or cells: CHO cells, stably transfected, expression induced with doxycycline
T1 sequence (Q9NP59 1-571): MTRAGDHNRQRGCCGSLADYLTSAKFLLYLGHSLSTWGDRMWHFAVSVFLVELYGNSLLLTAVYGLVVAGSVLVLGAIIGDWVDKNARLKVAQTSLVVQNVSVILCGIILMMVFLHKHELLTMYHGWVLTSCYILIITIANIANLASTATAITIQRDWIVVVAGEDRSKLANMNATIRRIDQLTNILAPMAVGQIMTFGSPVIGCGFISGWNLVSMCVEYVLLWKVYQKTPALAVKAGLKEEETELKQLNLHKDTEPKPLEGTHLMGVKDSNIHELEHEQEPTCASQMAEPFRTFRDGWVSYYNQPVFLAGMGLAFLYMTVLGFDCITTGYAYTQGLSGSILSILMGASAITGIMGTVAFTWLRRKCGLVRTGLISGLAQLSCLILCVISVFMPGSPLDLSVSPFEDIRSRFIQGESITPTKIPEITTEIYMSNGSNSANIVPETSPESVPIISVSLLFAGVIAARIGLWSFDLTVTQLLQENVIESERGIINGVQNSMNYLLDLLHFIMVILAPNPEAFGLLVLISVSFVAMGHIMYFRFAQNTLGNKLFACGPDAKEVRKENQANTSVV
Test: Biological in-vitro ferroportin internalization assay (luciferase reporter)
Assay type: cell-based
Details: average pEC50; stably-transfected CHO cell line expressing human ferroportin tagged to a luciferase reporter; 6 h incubation with test compound
In short: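 Read-out is Nano-Glo luciferase signal after 6 h compound exposure, with average pEC50 derived. Cells are a stable CHO line carrying luciferase-tagged human ferroportin, pre-loaded 24 h with ferric ammonium citrate and doxycycline-induced for 24 h.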

Row | Compound | pEC50
1 | COc1ccnc(-c2nc3c(c(N(C)CC(=O)NCCN(C)C)n2)CCC3)c1 [Compound 476, N-[2-(dimethylamino)ethyl]-2-{[2-(4-methoxypyridin-2-yl)-5H,6H,7H-cyclopenta[d]pyrimidin-4-yl](methyl)amino}acetamide] | 6.7
2 | COc1ccnc(-c2nc3c(c(N(C)CC(=O)N4CCOCC4)n2)CCC3)c1 [Compound 477, 2-{[2-(4-methoxypyridin-2-yl)-5H,6H,7H-cyclopenta[d]pyrimidin-4-yl](methyl)amino}-1-(morpholin-4-yl)ethan-1-one] | 6.9
3 | CN(C)CCOc1ccnc(-c2nc3c(c(N(C)CC(=O)NCC(F)(F)F)n2)CCC3)c1 [Compound 478, 2-[(2-{4-[2-(dimethylamino)ethoxy]pyridin-2-yl}-5H,6H,7H-cyclopenta[d]pyrimidin-4-yl)(methyl)amino]-N-(2,2,2-trifluoroethyl)acetamide] | 7.6
4 | CN(CC(=O)NCC(F)(F)F)c1nc(-c2cc(OCC(C)(C)O)ccn2)nc2c1CCC2 [Compound 479, 2-({2-[4-(2-hydroxy-2-methylpropoxy)pyridin-2-yl]-5H,6H,7H-cyclopenta[d]pyrimidin-4-yl}(methyl)amino)-N-(2,2,2-trifluoroethyl)acetamide] | 7.9
5 | CNCCCc1ccnc(-c2nc3c(c(N(C)CC(=O)NC(C)(C)C)n2)CCC3)c1 [Compound 480, N-tert-butyl-2-[methyl(2-{4-[3-(methylamino)propyl]pyridin-2-yl}-5H,6H,7H-cyclopenta[d]pyrimidin-4-yl)amino]acetamide] | 7.3
6 | CN(CC(=O)NC(C)(C)C)c1nc(-c2cc(CCC(C)(C)O)ccn2)nc2c1CCC2 [Compound 481, N-tert-butyl-2-({2-[4-(3-hydroxy-3-methylbutyl)pyridin-2-yl]-5H,6H,7H-cyclopenta[d]pyrimidin-4-yl}(methyl)amino)acetamide] | 7.7
7 | CN(CC(=O)NC(C)(C)C)c1nc(-c2cc(O)ccn2)nc2c1CCC2 [Compound 482, N-tert-butyl-2-{[2-(4-hydroxypyridin-2-yl)-5H,6H,7H-cyclopenta[d]pyrimidin-4-yl](methyl)amino}acetamide] | 6.1
8 | CN(CC(=O)NC(C)(C)C)c1nc(-c2cc(OCCN)ccn2)nc2c1CCC2 [Compound 483, 2-({2-[4-(2-aminoethoxy)pyridin-2-yl]-5H,6H,7H-cyclopenta[d]pyrimidin-4-yl}(methyl)amino)-N-tert-butylacetamide] | 7.2
9 | CN(C)CCOc1ccnc(-c2nc3c(c(NCC(=O)NC(C)(C)C)n2)CCC3)c1 [Compound 484, N-tert-butyl-2-[(2-{4-[2-(dimethylamino)ethoxy]pyridin-2-yl}-5H,6H,7H-cyclopenta[d]pyrimidin-4-yl)amino]acetamide] | 7
10 | CNCCOc1ccnc(-c2nc3c(c(NCC(=O)NC(C)(C)C)n2)CCC3)c1 [Compound 485, N-tert-butyl-2-[(2-{4-[2-(methylamino)ethoxy]pyridin-2-yl}-5H,6H,7H-cyclopenta[d]pyrimidin-4-yl)amino]acetamide] | 7.1
11 | C[C@H](CN(C)C)Oc1ccnc(-c2nc3c(c(N(C)CC(=O)NC4(C(F)(F)F)CC4)n2)CCC3)c1 [Compound 486, 2-{[2-(4-{[(2R)-1-(dimethylamino)propan-2-yl]oxy}pyridin-2-yl)-5H,6H,7H-cyclopenta[d]pyrimidin-4-yl](methyl)amino}-N-[1-(trifluoromethyl)cyclopropyl]acetamide] | 7.4
12 | CN1CC[C@@H](Oc2ccnc(-c3nc4c(c(N(C)CC(=O)NC5(C(F)(F)F)CC5)n3)CCC4)c2)C1 [Compound 487, 2-{methyl[2-(4-{[(3R)-1-methylpyrrolidin-3-yl]oxy}pyridin-2-yl)-5H,6H,7H-cyclopenta[d]pyrimidin-4-yl]amino}-N-[1-(trifluoromethyl)cyclopropyl]acetamide] | 7.5
13 | C[C@@H]1C[C@@H](Oc2ccnc(-c3nc4c(c(N(C)CC(=O)NC(C)(C)C)n3)CCC4)c2)CN1C [Compound 488, N-tert-butyl-2-{[2-(4-{[(3R,5R)-1,5-dimethylpyrrolidin-3-yl]oxy}pyridin-2-yl)-5H,6H,7H-cyclopenta[d]pyrimidin-4-yl](methyl)amino}acetamide] | 7.8
14 | CN1CCC[C@@H](Oc2ccnc(-c3nc4c(c(N(C)CC(=O)NC(C)(C)C)n3)CCC4)c2)C1 [Compound 489, N-tert-butyl-2-{methyl[2-(4-{[(3R)-1-methylpiperidin-3-yl]oxy}pyridin-2-yl)-5H,6H,7H-cyclopenta[d]pyrimidin-4-yl]amino}acetamide] | 8.2
15 | CN1CCC[C@H](Oc2ccnc(-c3nc4c(c(N(C)CC(=O)NC(C)(C)C)n3)CCC4)c2)C1 [Compound 490, N-tert-butyl-2-{methyl[2-(4-{[(3S)-1-methylpiperidin-3-yl]oxy}pyridin-2-yl)-5H,6H,7H-cyclopenta[d]pyrimidin-4-yl]amino}acetamide] | 7.9
16 | CN(CC(=O)NC(C)(C)C)c1nc(-c2cc(O[C@@H]3CCN(CC(F)F)C3)ccn2)nc2c1CCC2 [Compound 491, N-tert-butyl-2-{[2-(4-{[(3R)-1-(2,2-difluoroethyl)pyrrolidin-3-yl]oxy}pyridin-2-yl)-5H,6H,7H-cyclopenta[d]pyrimidin-4-yl](methyl)amino}acetamide] | 8.2
17 | CN(CC(=O)NC(C)(C)C)c1nc(-c2cc(OCC(C)(C)O)ccn2)nc2c1C(=O)CC2 [Compound 492, N-tert-butyl-2-({2-[4-(2-hydroxy-2-methylpropoxy)pyridin-2-yl]-5-oxo-5H,6H,7H-cyclopenta[d]pyrimidin-4-yl}(methyl)amino)acetamide] | 6.6

Second part, the molecule after the results:

Row | pEC50 | Compound
18 | 6.9 | CN(C)CCOc1ccnc(-c2nc3c(c(N(C)CC(=O)NC(C)(C)C)n2)C(O)CC3)c1 (stereo not drawn) [Compound 493, N-tert-butyl-2-[(2-{4-[2-(dimethylamino)ethoxy]pyridin-2-yl}-5-hydroxy-5H,6H,7H-cyclopenta[d]pyrimidin-4-yl)(methyl)amino]acetamide]
19 | 6.3 | CN(C)CCOc1ccnc(-c2nc3c(c(N(C)CC(=O)NC(C)(C)C)n2)CCC3O)c1 (stereo not drawn) [Compound 494, N-tert-butyl-2-[(2-{4-[2-(dimethylamino)ethoxy]pyridin-2-yl}-7-hydroxy-5H,6H,7H-cyclopenta[d]pyrimidin-4-yl)(methyl)amino]acetamide]
20 | 7.4 | CN(C)CCOc1ccnc(-c2cc(N(C)CC(=O)NC(C)(C)C)c3c(n2)CCC3)c1 [Compound 495, N-tert-butyl-2-[(2-{4-[2-(dimethylamino)ethoxy]pyridin-2-yl}-5H,6H,7H-cyclopenta[b]pyridin-4-yl)(methyl)amino]acetamide]
21 | 8.0 | CCN1CC[C@@H](Oc2ccnc(-c3nc4c(c(N(C)CC(=O)NC(C)(C)C)n3)CCC4)c2)C1 [Compound 496, N-tert-butyl-2-{[2-(4-{[(3R)-1-ethylpyrrolidin-3-yl]oxy}pyridin-2-yl)-5H,6H,7H-cyclopenta[d]pyrimidin-4-yl](methyl)amino}acetamide]
22 | 8.2 | CN(CC(=O)NC(C)(C)C)c1nc(-c2cc(O[C@@H]3CCN(CCF)C3)ccn2)nc2c1CCC2 [Compound 497, N-tert-butyl-2-{[2-(4-{[(3R)-1-(2-fluoroethyl)pyrrolidin-3-yl]oxy}pyridin-2-yl)-5H,6H,7H-cyclopenta[d]pyrimidin-4-yl](methyl)amino}acetamide]
23 | 7.5 | CSc1ccnc(-c2nc3c(c(N(C)CC(=O)NC(C)(C)C)n2)CCC3)c1 [Compound 498, N-tert-butyl-2-[methyl({2-[4-(methylsulfanyl)pyridin-2-yl]-5H,6H,7H-cyclopenta[d]pyrimidin-4-yl})amino]acetamide]
24 | 8.2 | CN(C)CCSc1ccnc(-c2nc3c(c(N(C)CC(=O)NC(C)(C)C)n2)CCC3)c1 [Compound 499, N-tert-butyl-2-{[2-(4-{[2-(dimethylamino)ethyl]sulfanyl}pyridin-2-yl)-5H,6H,7H-cyclopenta[d]pyrimidin-4-yl](methyl)amino}acetamide]
25 | 7.3 | CN(C)CCOc1ccnc(-c2nc3c(c(N(C)CC(=O)NC4CC4)n2)CCC3)c1 [Compound 500, N-cyclopropyl-2-[(2-{4-[2-(dimethylamino)ethoxy]pyridin-2-yl}-5H,6H,7H-cyclopenta[d]pyrimidin-4-yl)(methyl)amino]acetamide]
26 | 6.4 | CN(CC(=O)NC(C)(C)C)c1nc(-c2cc(OCC(C)(C)O)ccn2)nc2c1CCC2=O [Compound 501, N-tert-butyl-2-({2-[4-(2-hydroxy-2-methylpropoxy)pyridin-2-yl]-7-oxo-5H,6H,7H-cyclopenta[d]pyrimidin-4-yl}(methyl)amino)acetamide]
27 | 8.2 | C[C@H]1C[C@@H](Oc2ccnc(-c3nc4c(c(N(C)CC(=O)NC(C)(C)C)n3)CCC4)c2)CN1C [Compound 502, N-tert-butyl-2-{[2-(4-{[(3R,5S)-1,5-dimethylpyrrolidin-3-yl]oxy}pyridin-2-yl)-5H,6H,7H-cyclopenta[d]pyrimidin-4-yl](methyl)amino}acetamide]

Reference: patent publication US11746100B2 (GLOBAL BLOOD THERAPEUTICS, INC., priority 2020, dated 2023)
